Data reported in article PMC3926237, “Identification of Levothyroxine Antichagasic Activity through Computer-Aided Drug Repurposing” (The Scientific World Journal, 2014).

Target: cruzipain (Cz) (Trypanosoma cruzi, UniProt P25779)
Test: chromogenic Bz-Pro-Phe-Arg-pNA protease assay on partially purified native cruzipain, […] nm
Type: biochemical

Sequence of cruzipain (Cz) (P25779 123-467): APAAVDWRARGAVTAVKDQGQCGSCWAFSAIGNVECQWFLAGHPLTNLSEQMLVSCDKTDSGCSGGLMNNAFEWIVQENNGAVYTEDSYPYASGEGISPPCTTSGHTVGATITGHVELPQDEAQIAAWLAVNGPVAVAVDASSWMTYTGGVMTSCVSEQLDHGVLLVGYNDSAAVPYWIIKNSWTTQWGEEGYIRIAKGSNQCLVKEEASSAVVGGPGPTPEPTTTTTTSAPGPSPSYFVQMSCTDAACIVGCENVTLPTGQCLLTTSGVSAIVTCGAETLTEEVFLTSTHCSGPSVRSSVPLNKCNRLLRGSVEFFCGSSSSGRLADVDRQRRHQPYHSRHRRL

With `N[C@@H](Cc1cc(I)c(Oc2cc(I)c(O)c(I)c2)c(I)c1)C(=O)O` [levothyroxine] the IC50 was 38.4 ± 6.82 µM.
